From US10201532B2, “Compounds and their use” (ALLECRA THERAPEUTICS GMBH, priority 2010, dated 2019)
“And” between values parts separate entries of the source, which are not always exact repeats. Identical values can stand only once.

How the values were obtained:
E. coli Ecoli233 (KPC3) = assay: Synergistic broth micro-dilution MIC; assay type: cell-based, Escherichia coli
[1] = system: KPC-2 producing K. pneumoniae (ATCC BAA-1705); assay: Synergistic broth micro-dilution MIC (checkerboard); assay type: cell-based, Klebsiella pneumoniae; conditions: ATCC BAA-1705
[2] = system: KPC-3 expressing E. coli (J53 R6206); assay: as above; assay type: cell-based, Escherichia coli
[3] = system: K. pneumoniae UMM3 (KPC2); assay: Synergistic broth micro-dilution MIC; assay type: cell-based, Klebsiella pneumoniae; conditions: BLI at 4 μg/mL
[4] = system: K. pneumoniae NCTC 13438 (KPC3); assay: Synergistic broth micro-dilution MIC; assay type: cell-based, Klebsiella pneumoniae; conditions: BLI at 4 μg/mL
[5] = system: KPC-3 expressing E. coli (J53 R6206); assay: microbe, parasite or virus in culture; assay type: cell-based, Escherichia coli
Procedure: The β-lactam compound was tested for in vitro antibacterial activities by the broth micro-dilution or agar dilution method as specified in documents published by Clinical and Laboratory Standards Institute (CLSI), USA (formerly NCCLS). Approved standard M7-A7, January 2006, CLSI, Wayne, Pa., USA and M100-S18, January 2008, CLSI, Wayne, Pa., USA.
In agar dilution method briefly, stock solutions of the cephalosporins for veterinary use (e.g. 2 mg/mL) was made in water, 0.1M phosphate buffers or appropriate solvents and the solution was serially two fold diluted. Compound-1 was dissolved in water and Tazobactam (comparator BLI) in 0.1M phosphate buffer, pH 6.0 to get a solution of 1 mg/mL. Cephalosporins were screened in a concentration range of 0.5-32 μg/mL. For combination, Tazobactam or the Compound-1 described herein were tested at a fixed concentration of 4 μg/mL along with the cephalosporins concentration ranging from 0.5 to 32 μg/mL. […] The compound of formula (I) and Tazobactam were also tested individually. The bacterial inoculum was prepared by picking 3 to 5 well isolated bacterial colonies with the same morphological appearance from an 18-24 h old culture and adjusting the turbidity of the saline suspension to 0.5 McFarland turbidity standard equivalent to a bacterial population of ˜1×10^8 CFU per mL of suspension. The suspension was diluted 1:10 in saline to get a bacterial population of ˜1×10^7 CFU/mL as inoculum. This bacterial inoculum was inoculated onto the prepared petri dishes by a multipoint inoculator with each inoculum spot containing ˜1×10^4 CFU of the bacterial strain. The inoculated petri dishes were incubated at 35° C. in an ambient atmosphere for 18-20 h.

[6] = target: T1, crude KPC-2 enzyme extract (Klebsiella pneumoniae, UniProt Q9F663); assay: β-Lactamase inhibitory assay with CENTA substrate; assay type: biochemical
T1 construct: enzyme extracts from KPC-2 producing and KPC-3 expressing bacterial gram negative strains were used; endogenous in cells; host or cells: KPC-2 producing gram-negative strain
From the text: (§1) The Compound-1 was subjected to β-lactamase inhibitory assay to determine IC50 and to compare that with the comparator BLI agents as described elsewhere (Bebrone et. al., Antimicrob. Agents. Chemother, 2001, 45(6): 1868-1871; Jamieson et. al, Antimicrob. Agents. Chemother, 2003, 47(5): 1652-1657). Briefly, enzyme extracts from KPC-2 producing and KPC-3 expressing bacterial gram negative strains were used to study the β-lactamase inhibitory activity and determination of IC50 using CENTA as the substrate for β-lactamase.

[7] = target: crude KPC-3 enzyme extract (UniProt Q9F663, H272Y, species not given); assay: β-Lactamase inhibitory assay with CENTA substrate; assay type: biochemical; conditions: also headed KPC2
From the text: as §1

[8] = BLI at 4 μg/mL, E. coli J53 R6206

SMILES: C[n+]1ccn(C[C@@]2(C)[C@H](C(=O)[O-])N3C(=O)C[C@H]3S2(=O)=O)n1 [Compound-1, 1-{[(2S,3S,5R)-2-Carboxy-3-methyl-4,4,7-trioxo-4-thia-1-azabicyclo[3.2.0]hept-3-yl]methyl}-3-methyl-1H-1,2,3-triazol-3-ium]
- MIC of Imipenem in combination with BLI (E. coli Ecoli233 (KPC3); BLI at 4 μg/mL): 4 µg/mL
- MIC of Imipenem in combination with BLI (E. coli Ecoli233 (KPC3); BLI at 16 μg/mL): 1 µg/mL
- MIC of Cefquinome in combination with BLI ([1]; BLI at 1 μg/mL): >64 µg/mL
- MIC of Ceftiofur in combination with BLI ([1]; BLI at 1 μg/mL): >64 µg/mL
- MIC of Cefepime in combination with BLI ([1]; BLI at 2 μg/mL): 64 µg/mL
- MIC of Cefotaxime in combination with BLI ([1]; BLI at 2 μg/mL): 32 µg/mL
- MIC of Cefquinome in combination with BLI ([1]; BLI at 2 μg/mL): >64 µg/mL
- MIC of Ceftazidime in combination with BLI ([1]; BLI at 2 μg/mL): >64 µg/mL
- MIC of Ceftiofur in combination with BLI ([1]; BLI at 2 μg/mL): >64 µg/mL
- MIC of Ceftobiprole in combination with BLI ([1]; BLI at 2 μg/mL): >64 µg/mL
- MIC of Imipenem in combination with BLI ([1]; BLI at 2 μg/mL): 4 to 8 µg/mL
- MIC of Meropenem in combination with BLI ([1]; BLI at 2 μg/mL): 16 µg/mL
- MIC of Aztreonam in combination with BLI ([1]; BLI at 4 μg/mL): >64 µg/mL
- MIC of Cefadroxil in combination with BLI ([1]; BLI at 4 μg/mL): >64 µg/mL
- MIC of Cefalonium in combination with BLI ([1]; BLI at 4 μg/mL): >64 µg/mL
- MIC of Cefepime in combination with BLI ([1]; BLI at 4 μg/mL): 32 µg/mL
- MIC of Cefotaxime in combination with BLI ([1]; BLI at 4 μg/mL): 16 µg/mL
- MIC of Cefquinome in combination with BLI ([1]; BLI at 4 μg/mL): 64 µg/mL
- MIC of Ceftazidime in combination with BLI ([1]; BLI at 4 μg/mL): ≥64 µg/mL
- MIC of Ceftiofur in combination with BLI ([1]; BLI at 4 μg/mL): >64 µg/mL
- MIC of Ceftobiprole in combination with BLI ([1]; BLI at 4 μg/mL): >64 µg/mL
- MIC of Ertapenem in combination with BLI ([1]; BLI at 4 μg/mL): 32 µg/mL
- MIC of Faropenem in combination with BLI ([1]; BLI at 4 μg/mL): >64 µg/mL
- MIC of Imipenem in combination with BLI ([1]; BLI at 4 μg/mL): 4 µg/mL
- MIC of Meropenem in combination with BLI ([1]; BLI at 4 μg/mL): 4 to 8 µg/mL and 8 µg/mL
- MIC of Cefepime in combination with BLI ([1]; BLI at 8 μg/mL): 16 µg/mL
- MIC of Cefotaxime in combination with BLI ([1]; BLI at 8 μg/mL): 16 µg/mL
- MIC of Cefquinome in combination with BLI ([1]; BLI at 8 μg/mL): 64 µg/mL
- MIC of Ceftazidime in combination with BLI ([1]; BLI at 8 μg/mL): 64 µg/mL
- MIC of Ceftiofur in combination with BLI ([1]; BLI at 8 μg/mL): 64 µg/mL
- MIC of Ceftobiprole in combination with BLI ([1]; BLI at 8 μg/mL): >64 µg/mL
- MIC of Ertapenem in combination with BLI ([1]; BLI at 8 μg/mL): 16 µg/mL
- MIC of Faropenem in combination with BLI ([1]; BLI at 8 μg/mL): >64 µg/mL
- MIC of Imipenem in combination with BLI ([1]; BLI at 8 μg/mL): 2 µg/mL
- MIC of Meropenem in combination with BLI ([1]; BLI at 8 μg/mL): 2 to 4 µg/mL
- MIC of Aztreonam in combination with BLI ([1]; BLI at 16 μg/mL): 64 µg/mL
- MIC of Cefadroxil in combination with BLI ([1]; BLI at 16 μg/mL): >64 µg/mL
- MIC of Cefalonium in combination with BLI ([1]; BLI at 16 μg/mL): 32 µg/mL
- MIC of Cefepime in combination with BLI ([1]; BLI at 16 μg/mL): 4 µg/mL
- MIC of Cefotaxime in combination with BLI ([1]; BLI at 16 μg/mL): 4 µg/mL
- MIC of Cefquinome in combination with BLI ([1]; BLI at 16 μg/mL): 8 to 16 µg/mL
- MIC of Ceftazidime in combination with BLI ([1]; BLI at 16 μg/mL): 4 µg/mL
- MIC of Ceftiofur in combination with BLI ([1]; BLI at 16 μg/mL): 16 to 32 µg/mL
- MIC of Ceftobiprole in combination with BLI ([1]; BLI at 16 μg/mL): 64 µg/mL
- MIC of Ertapenem in combination with BLI ([1]; BLI at 16 μg/mL): 8 µg/mL
- MIC of Faropenem in combination with BLI ([1]; BLI at 16 μg/mL): 64 µg/mL
- MIC of Imipenem in combination with BLI ([1]; BLI at 16 μg/mL): <0.5 to 1 µg/mL and 1 µg/mL
- MIC of Meropenem in combination with BLI ([1]; BLI at 16 μg/mL): 1 µg/mL
- MIC of Cefquinome in combination with BLI ([1]; BLI at 32 μg/mL): 2 to 4 µg/mL
- MIC of Ceftiofur in combination with BLI ([1]; BLI at 32 μg/mL): 4 µg/mL
- MIC of Aztreonam in combination with BLI ([1]; BLI at 64 μg/mL): <0.5 µg/mL
- MIC of Cefadroxil in combination with BLI ([1]; BLI at 64 μg/mL): 64 µg/mL
- MIC of Cefalonium in combination with BLI ([1]; BLI at 64 μg/mL): 8 µg/mL
- MIC of Cefepime in combination with BLI ([1]; BLI at 64 μg/mL): <0.5 µg/mL
- MIC of Cefotaxime in combination with BLI ([1]; BLI at 64 μg/mL): ≤0.5 µg/mL
- MIC of Cefquinome in combination with BLI ([1]; BLI at 64 μg/mL): 1 µg/mL
- MIC of Ceftazidime in combination with BLI ([1]; BLI at 64 μg/mL): 1 µg/mL
- MIC of Ceftiofur in combination with BLI ([1]; BLI at 64 μg/mL): 2 to 4 µg/mL
- MIC of Ceftobiprole in combination with BLI ([1]; BLI at 64 μg/mL): ≤0.5 µg/mL
- MIC of Ertapenem in combination with BLI ([1]; BLI at 64 μg/mL): <0.5 µg/mL
- MIC of Faropenem in combination with BLI ([1]; BLI at 64 μg/mL): 4 µg/mL
- MIC of Imipenem in combination with BLI ([1]; BLI at 64 μg/mL): <0.5 to 1 µg/mL
- MIC of Meropenem in combination with BLI ([1]; BLI at 64 μg/mL): <0.5 µg/mL
- MIC of Cefepime in combination with BLI ([2]; BLI at 2 μg/mL): 1 µg/mL
- MIC of Cefotaxime in combination with BLI ([2]; BLI at 2 μg/mL): 1 µg/mL
- MIC of Ceftazidime in combination with BLI ([2]; BLI at 2 μg/mL): 2 µg/mL
- MIC of Ceftobiprole in combination with BLI ([2]; BLI at 2 μg/mL): 2 µg/mL
- MIC of Imipenem in combination with BLI ([2]; BLI at 2 μg/mL): 1 µg/mL
- MIC of Meropenem in combination with BLI ([2]; BLI at 2 μg/mL): <0.06 µg/mL
- MIC of Cefepime in combination with BLI ([2]; BLI at 4 μg/mL): 0.25 µg/mL
- MIC of Cefotaxime in combination with BLI ([2]; BLI at 4 μg/mL): <0.25 µg/mL
- MIC of Ceftazidime in combination with BLI ([2]; BLI at 4 μg/mL): 1 µg/mL
- MIC of Ceftobiprole in combination with BLI ([2]; BLI at 4 μg/mL): 0.5 µg/mL
- MIC of Imipenem in combination with BLI ([2]; BLI at 4 μg/mL): 0.5 µg/mL
- MIC of Cefepime in combination with BLI ([2]; BLI at 8 μg/mL): <0.125 µg/mL
- MIC of Cefotaxime in combination with BLI ([2]; BLI at 8 μg/mL): <0.25 µg/mL
- MIC of Ceftazidime in combination with BLI ([2]; BLI at 8 μg/mL): 1 µg/mL
- MIC of Ceftobiprole in combination with BLI ([2]; BLI at 8 μg/mL): <0.25 µg/mL
- MIC of Imipenem in combination with BLI ([2]; BLI at 8 μg/mL): 0.5 µg/mL
- MIC of Meropenem in combination with BLI ([2]; BLI at 8 μg/mL): <0.06 µg/mL
- MIC of Imipenem in combination with BLI ([2]; BLI at 16 μg/mL): 0.25 µg/mL
- MIC of Meropenem in combination with BLI ([2]; BLI at 16 μg/mL): <0.125 µg/mL
- MIC ([2]; Escherichia coli, read-out: MIC of BLI alone, BLI alone): > 8 µg/mL
- MIC of Imipenem in combination with BLI [3]: 1 µg/mL
- MIC of Imipenem in combination with BLI [4]: 32 µg/mL
- MIC of Cefadroxil in combination with BLI [5, 8]: >32 µg/mL
- MIC of Cefalonium in combination with BLI [5, 8]: 4 µg/mL
- MIC of Cefquinome in combination with BLI [5, 8]: <0.5 µg/mL
- MIC of Ceftiofur in combination with BLI [5, 8]: <0.5 µg/mL
- MIC ([5]; Escherichia coli, read-out: MIC of BLI alone): > 16 µg/mL
- IC50 [6]: 190 µM
- IC50 [7]: 10.7 µM
